# Laboratory results reported in patent US10495796B2, “Near-infrared cut filter” (AGC INC., priority 2012, dated 2019).
# Assays:
# Format in all cases: physicochemical
# [1] = Absorption characteristics: transmission spectrum of near-infrared absorbing layer of NIR filter (UV-visible spectrophotometer)
# How it was run: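 Transmission spectra of the near-infrared absorbing layer on glass were recorded with a UV-visible spectrophotometer at normal incidence, with the glass plate's absorption and interface reflections subtracted. From the 650–800 nm region, λa (shortest wavelength at 1% transmittance) and λc (70% transmittance, shorter side) were taken. The Is value is nd(B)×(λa−λc), with λb−λa fixed at 30 nm.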
# [2] = Solubility of dye to organic solvent; settings: 50° C., mass % of the dye to the mass of the entire solution
# Method: Regarding the dyes (A11-1) to (A11-10) and (A11-20) to (A11-27) obtained above, solubility to organic solvent was evaluated as follows.
# Three kinds of solvents, cyclohexanone, methyl isobutyl ketone (MIBK), toluene, were used as the organic solvent in the solubility test. Note that in Table 3, % is mass % of the dye to the mass of the entire solution. Further, the temperature of each organic solvent in the solubility test was 50° C.
# [3] = Transmittance and 20% shift (incident angle dependency) of NIR filter having selected wavelength shielding layer; settings: NIR filter 110: dye 3.0 parts by mass per 100 of polyester resin B-OKP2 (nd(B) 1.64), with selected wavelength shielding layer and antireflection layer
# Method: In the present filter, the visible light transmittance is secured sufficiently by satisfying the condition (iv-1), and moreover, angle dependency which the dielectric multilayer film has is solved, and the light shielding property of the near-infrared region is secured sufficiently in a wide wavelength region without being affected by the influence of the incident angle by satisfying the conditions (iv-2) and (iv-3). • Here, in the condition (iv-3), the angle dependency is evaluated by using a shift of wavelength in 20% transmittance when the incident angle is 0 degree and when it is 30 degrees as an index.
# Transmittance of the NIR filter of Example 110 was measured as transmittance of light incident from a direction orthogonal to a main surface, that is, light with an incident angle of 0 degree and transmittance of light incident from a direction making an angle of 30 degrees relative to a line orthogonal to the main surface, that is, light with an incident angle of 30 degrees by using an ultraviolet visible light spectrophotometer (U-4100 type spectrophotometer made by Hitachi High-Technologies Corporation), so as to obtain a transmission spectrum. A 20% shift (30 degrees) is a difference between a value of a wavelength with transmittance of 20% of light with an incident angle of 0 degree (indicated as “λ20-0”) and a value of a wavelength with transmittance of 20% of light with an incident angle of 30 degrees (indicated as “λ20-30”).
# Moreover, a transmission spectrum of light with an incident angle of 40 degrees was obtained similarly. Further, the difference between a value of a wavelength with transmittance of 20% of light with an incident angle of 0 degree (λ20-0) and a value of a wavelength with transmittance of 20% of light with an incident angle of 40 degrees (indicated as “λ20-40”) was obtained as a 20% shift (40 degrees).
# The near-infrared absorbing layer was formed on a glass plate similarly to Example 7 except that a glass plate on which the selected wavelength shielding layer is formed was used on a face opposite to an application face of the coating liquid for forming the near-infrared absorbing layer. Moreover, the antireflection layer was formed on the near-infrared absorbing layer, so as to obtain the NIR filter 110. The film thickness in the selected wavelength shielding layer in its entirety was approximately 8.9 μm, and the film thickness in the antireflection layer in its entirety was approximately 0.34 μm. The transmittance of the obtained NIR filter 110 was measured, and 20% shifts (30 degrees) and (40 degrees) were obtained. Results thereof are presented in Table 9 together with structures of the near-infrared absorbing layer. FIG. 6 illustrates transmission spectra of light with incident angles of 0 degree, 30 degrees and 40 degrees of the wavelength region of 660 nm to 690 nm in the NIR filter 110 by a solid line, a dotted line and a dashed line, respectively.
# [4] = transparent resin acrylic resin BR50, nd(B) 1.56, film thickness 2.3 μm
# [5] = transparent resin polycarbonate EP5000, nd(B) 1.63, film thickness 2.4 μm
# [6] = transparent resin polycarbonate SP3810, nd(B) 1.63, film thickness 1.0 μm
# [7] = transparent resin polycarbonate SP3810, nd(B) 1.63, film thickness 2.8 μm
compound,measurement,setting,value
CCCCC(CC)C(=O)Nc1cc2c(cc1C1=C([O-])C(=c3cc4c(cc3NC(=O)C(CC)CCCC)=[N+](C(C)C)C(C)C4(C)C)C1=O)C(C)(C)C(C)N2C(C)C (stereo not shown) [Example A11-7],430 nm to 600 nm Average transmittance,[1]; [4],96.1%
same,Is value (nd(B)×(λa-λc)),[1]; [4],101.5
same,λa,[1]; [4],695 nm
same,λa − λc,[1]; [4],65 nm
same,λb,[1]; [4],715 nm
same,λb − λa,[1]; [4],30 nm
same,λc,[1]; [4],630 nm
same,λmax,[1]; [4],712 nm
same,430 nm to 600 nm Average transmittance,[1]; [5],96.9%
same,Is value (nd(B)×(λa-λc)),[1]; [5],104.5
same,λa,[1]; [5],700 nm
same,λa − λc,[1]; [5],64 nm
same,λb,[1]; [5],730 nm
same,λb − λa,[1]; [5],30 nm
same,λc,[1]; [5],636 nm
same,λmax,[1]; [5],715 nm
same,430 nm to 600 nm Average transmittance,[1]; [6],95.8%
same,Is value (nd(B)×(λa-λc)),[1]; [6],106.3
same,λa,[1]; [6],700 nm
same,λa − λc,[1]; [6],65 nm
same,λb,[1]; [6],730 nm
same,λb − λa,[1]; [6],30 nm
same,λc,[1]; [6],635 nm
same,λmax,[1]; [6],712 nm
same,430 nm to 600 nm Average transmittance,[1]; [7],96.5%
same,Is value (nd(B)×(λa-λc)),[1]; [7],104.6
same,λa,[1]; [7],700 nm
same,λa − λc,[1]; [7],64 nm
same,λb,[1]; [7],730 nm
same,λb − λa,[1]; [7],30 nm
same,λc,[1]; [7],636 nm
same,λmax,[1]; [7],716 nm
same,Solubility to organic solvent: Cyclohexanone,[2]; cyclohexanone,10%< mass %
same,Solubility to organic solvent: MIBK,[2]; methyl isobutyl ketone,3.00% mass %
same,Solubility to organic solvent: Toluene,[2]; toluene,10%< mass %
same,20% shift 30 degrees (λ20-0-λ20-30),[3],1 nm
same,20% shift 40 degrees (λ20-0-λ20-40),[3],3 nm
same,20%-transmittance wavelength of 0-degree incident angle (λ20-0),[3],668 nm
same,20%-transmittance wavelength of 30-degree incident angle (λ20-30),[3],667 nm
same,20%-transmittance wavelength of 40-degree incident angle (λ20-40),[3],665 nm
same,Transmittance 420 nm to 620 nm (average),[3],88.6%
same,Transmittance 700 nm to 1100 nm (average),[3],0.03%
same,Transmittance 710 nm to 1100 nm (maximum),[3],0.28%
